Test results published in patent publication US12370183B2, “Compositions and methods for treating malaria” (Rutgers, The State University of New Jersey, priority 2020, dated 2025).
Like-named read-outs stand apart in the source and are kept apart here.

What was measured:
[1] = Solubility of the desbenzo analogue compared with 66; type: physicochemical
Description: For example, the melting point of 66 is 220° C. and the desbenzo analogue is 83.5° C.

[2] = test system: 3D7 strain of Plasmodium falciparum; assay: Potency in the 3D7 strain of Plasmodium falciparum (EC50); type: cell-based; conditions: for EC50: Plasmodium falciparum
From the text: (§1) The present invention relates to methods of treating malaria with tetrahydrobenzonaphtyridine carboxanilide (TBN) derivatives and related pyrrolinones and hydrolysis products thereof. These compounds are active against Plasmodium falciparum strains that are resistant to multiple drugs currently on the market. The present invention further relates to novel compounds and pharmaceutical compositions comprising such compounds. The compounds have been synthesized and tested for their potency in the 3D7 strain of Plasmodium falciparum. Their cytotoxicity was also tested in the BJ human fibroblast line. No compounds show significant cytotoxicity.
(§2) A high-throughput screen performed against the Plasmodium parasite. About 8,000 compounds were screened. Each hit was tested against resistant P. falciparum variants K1, V1S, D10DD, ATP4 1247, and C2B. Potency against these assays assured that the chemotype acts through a mechanism distinct from that of halofantrine, chloroquine, mefloquine, pyrimethamine, proguanil, atovaquone, and (+)SJ733. The toxicity of the compounds was also measured by testing their lethality against a BJ cell line (human fibroblasts). No TBNs were toxic. A structure activity investigation was performed in order to improve the EC50 of the TBNs to the single-digit nanomolar range, as well as to increase the water solubility.
(§3) Substituents were installed at N−2 by using a variety of methods. Reductive alkylation (Abdel-Magid, A. F.; Mehrman, S. J. A Review on the Use of Sodium Triacetoxyborohydride in the Reductive Amination of Ketones and Aldehydes. Org. Process Res. Dev. 2006, 10 (5), 971-1031) was a dependable technique that produced over fifteen analogues. Conjugate additions and nucleophilic substitutions provided most of the others. A type of reductive alkylation that uses carboxylic acids instead of aldehydes (the Beller reduction) led to two analogues (Sorribes, I.; Junge, K.; Beller, M. Direct Catalytic N-Alkylation of Amines with Carboxylic Acids. J. Am. Chem. Soc. 2014, 136 (40), 14314-14319. Some of the compounds listed were synthesized through other means, or were derived from other TBNs. Compounds 66 and 128 were produced by the amidation of acids 132 and 133, which had the corresponding substitution already installed. TBNs 93, and 94 were produced from the Pfitzinger products formed from the condensation of isatin with (R)-1-(1-phenylethyl)piperidin-4-one (134) and (S)-1-(1-phenylethyl)piperidin-4-one (135), respectively.

[3] = in vitro; type: cell-based; conditions: human
From the text: as §1, §2

[4] = test system: resistant P. falciparum variant K1; assay: Potency against resistant P. falciparum variant K1 (EC50); type: cell-based; conditions: Plasmodium falciparum, K1, read-out: K1 EC50 (μM)
Description: as §2, §3

[5] = 3D7, read-out: 3D7 Mean EC50 (μM)

Structure (SMILES) | solubility, in words [1] | EC50 ([2]; 3D7) [µM] | EC50 [3] [nM] | EC50 [4] [µM] | EC50 [2, 5] [µM] | improvement of potency by oxidation of the TBN to the pyrrolinone ([2]; 183 versus corresponding TBN 147)
O=C(Nc1ccc(F)c(F)c1)c1ccnc2c1CN(Cc1ccccc1)CC2 [Compound 68, 6-Benzyl-N-(3,4-difluorophenyl)-5,6,7,8-tetrahydro-1,6-naphthyridine-4-carboxamide] | increased solubility versus 66 | 3.48 |  |  |  | 
CC(c1ccccn1)N1CCc2nc3ccccc3c(C(=O)Nc3ccc(F)c(F)c3)c2C1 (centres unmarked) [Compound 90, N-(3,4-Difluorophenyl)-2-(1-(pyridin-2-yl)ethyl)-1,2,3,4-tetrahydrobenzo[b][1,6]naphthyridine-10-carboxamide] |  |  | > 11700 | 0.0439 | 0.0603 ± 0.0234 | 
C=CCN1CCc2nc3ccccc3c(C(=O)Nc3ccc(F)c(F)c3)c2C1 [Compound 92, 2-Allyl-N-(3,4-difluorophenyl)-1,2,3,4-tetrahydrobenzo[b][1,6]naphthyridine-10-carboxamide] |  |  | > 23300 | 0.0719 | 0.128 ± 0.0238 | 
COC(=O)CCN1CCc2nc3ccccc3c(C(=O)Nc3ccc(F)c(F)c3)c2C1 [Compound 109, Methyl 3-(10-((3,4-difluorophenyl)carbamoyl)-3,4-dihydrobenzo[b][1,6]naphthyridin-2(1H)-yl)propanoate] |  |  | > 23300 | 0.487 | 0.673 ± 0.107 | 
CN(C)C(=O)CCN1CCc2nc3ccccc3c(C(=O)Nc3ccc(F)c(F)c3)c2C1 [Compound 110, N-(3,4-Difluorophenyl)-2-(3-(dimethylamino)-3-oxopropyl)-1,2,3,4-tetrahydrobenzo[b][1,6]naphthyridine-10-carboxamide] |  |  | > 23300 | 0.658 | 0.888 ± 0.459 | 
N#CCCN1CCc2nc3ccccc3c(C(=O)Nc3ccc(F)c(F)c3)c2C1 [Compound 113, 2-(2-Cyanoethyl)-N-(3,4-difluorophenyl)-1,2,3,4-tetrahydrobenzo[b][1,6]naphthyridine-10-carboxamide] |  |  | > 23300 | 2.05 ± 0.256 | 1.62 ± 1.25 | 
O=C(Nc1ccc(Cl)cc1)c1c2c(nc3ccc(Cl)cc13)CCN(CCc1ccccc1)C2 [Compound 168, 8-Chloro-N-(4-chlorophenyl)-2-phenethyl-1,2,3,4-tetrahydrobenzo[b][1,6]naphthyridine-10-carboxamide] |  |  | > 24000 |  | < 0.0348 | 
N#Cc1cc(NC(=O)c2c3c(nc4cc(Cl)ccc24)CCN(CCc2ccccc2)C3)ccc1F [Compound 169, 7-Chloro-N-(3-cyano-4-fluorophenyl)-2-phenethyl-1,2,3,4-tetrahydrobenzo[b][1,6]naphthyridine-10-carboxamide] |  |  | > 24000 |  | 0.04 ± 0.032 | 
COc1ccc(NC(=O)c2c3c(nc4ccc(Cl)cc24)CCN(CCc2ccccc2)C3)cc1OC [Compound 170, 8-Chloro-N-(3,4-dimethoxyphenyl)-2-phenethyl-1,2,3,4-tetrahydrobenzo[b][1,6]naphthyridine-10-carboxamide] |  |  | > 24000 |  | 0.116 ± 0.025 | 
O=C(Nc1ccc(Br)cc1)c1c2c(nc3cc(Cl)ccc13)CCN(CCc1ccccc1)C2 [Compound 171, N-(4-Bromophenyl)-7-chloro-2-phenethyl-1,2,3,4-tetrahydrobenzo[b][1,6]naphthyridine-10-carboxamide] |  |  | > 24000 |  | 0.37 ± 0.26 | 
O=C1c2c3c(nc4cc(Cl)ccc24)CCN(CCc2ccccc2)C3N1c1ccc(Br)cc1 (centres unmarked) [Compound 175, 2-(4-Bromophenyl)-8-chloro-3-phenethyl-2a,3,4,5-tetrahydrobenzo[b]pyrrolo[4,3,2-de][1,6]naphthyridin-1(2H)-one] |  |  | 15200 ± 8470 |  | < 0.00192 | 
O=C1c2c3c(nc4ccc(Cl)cc24)CCN(CCc2ccccc2)C3N1c1cccc(Cl)c1 (centres unmarked) [Compound 176, 9-Chloro-2-(3-chlorophenyl)-3-phenethyl-2a,3,4,5-tetrahydrobenzo[b]pyrrolo[4,3,2-de][1,6]naphthyridin-1(2H)-one] |  |  | > 24000 |  | < 0.00296 | 
COc1ccc(N2C(=O)c3c4c(nc5cc(Cl)ccc35)CCN(CCc3ccccc3)C42)cc1OC (centres unmarked) [Compound 178, 8-Chloro-2-(3,4-dimethoxyphenyl)-3-phenethyl-2a,3,4,5-tetrahydrobenzo[b]pyrrolo[4,3,2-de][1,6]naphthyridin-1(2H)-one] |  |  | 9320 ± 6690 |  | 0.00446 ± 0.002 | 
O=C1c2c3c(nc4cc(Cl)ccc24)CCN(CCc2ccccc2)C3N1c1ccc(Cl)cc1 (centres unmarked) [Compound 179, 8-Chloro-2-(4-chlorophenyl)-3-phenethyl-2a,3,4,5-tetrahydrobenzo[b]pyrrolo[4,3,2-de][1,6]naphthyridin-1(2H)-one] |  |  | 22600 ± 373 |  | 0.0059 ± 0.002 | 
CCOCCN1CCc2nc3ccccc3c3c2C1N(c1ccc(F)c(F)c1)C3=O (centres unmarked) [Compound 180, 2-(3,4-Difluorophenyl)-3-(2-ethoxyethyl)-2a,3,4,5-tetrahydrobenzo[b]pyrrolo[4,3,2-de][1,6]naphthyridin-1(2H)-one] |  |  | > 24000 |  | 0.0087 ± 0.001 | 
O=C1c2c3c(nc4ccc(Cl)cc24)CCN(CCc2ccccc2)C3N1c1ccc(Cl)cc1 (centres unmarked) [Compound 181, 9-Chloro-2-(4-chlorophenyl)-3-phenethyl-2a,3,4,5-tetrahydrobenzo[b]pyrrolo[4,3,2-de][1,6]naphthyridin-1(2H)-one] |  |  | > 24000 |  | 0.0126 ± 0.002 | 
O=C1c2c3c(nc4ccc(Cl)cc24)CCN(CCc2ccccc2)C3N1c1ccc(Br)cc1 (centres unmarked) [Compound 182, 2-(4-Bromophenyl)-9-chloro-3-phenethyl-2a,3,4,5-tetrahydrobenzo[b]pyrrolo[4,3,2-de][1,6]naphthyridin-1(2H)-one] |  |  | > 24000 |  | 0.0396 ± 0.017 | 
CC(=O)O[C@H]1CO[C@H]2[C@@H]1OC[C@@H]2Oc1cccc(N2C(=O)c3c4c(nc5ccccc35)CCN(CCc3ccccc3)C42)c1 (stereo partly drawn) [Compound 183, (3S,3aR,6S,6aR)-6-(3-(1-Oxo-3-phenethyl-2a,3,4,5-tetrahydrobenzo[b]pyrrolo[4,3,2-de][1,6]naphthyridin-2(1H)-yl)phenoxy)hexahydrofuro[3,2-b]furan-3-yl Acetate] |  | 0.0407 | > 24000 |  | 0.0407 ± 0.012 | nearly a hundred-fold
N#Cc1cc(N2C(=O)c3c4c(nc5cc(Cl)ccc35)CCN(CCc3ccccc3)C42)ccc1F (centres unmarked) [Compound 184, 5-(8-Chloro-1-oxo-3-phenethyl-2a,3,4,5-tetrahydrobenzo[b]pyrrolo[4,3,2-de][1,6]naphthyridin-2(1H)-yl)-2-fluorobenzonitrile] |  |  | > 24000 |  | 0.0437 ± 0.021 | 
COc1ccc(N2C(=O)c3c4c(nc5ccc(Cl)cc35)CCN(CCc3ccccc3)C42)cc1OC (centres unmarked) [Compound 185, 9-Chloro-2-(3,4-dimethoxyphenyl)-3-phenethyl-2a,3,4,5-tetrahydrobenzo[b]pyrrolo[4,3,2-de][1,6]naphthyridin-1(2H)-one] |  |  | > 24000 |  | 0.049 ± 0.016 | 
